Results published in PubChem BioAssay AID256 (DTP/NCI, 2004).
Several values for one entry are separate records, joined by “and”; a condition that tells them apart may be missing. Equal values may be shown once. Toxic doses and inconclusive results are not listed.

Tested on: CD2F1 mice, L1210 leukemia ip, survival T/C
Experiment: NCI In Vivo Anticancer Drug Screen. Data for tumor model L1210 Leukemia (intraperitoneal) in CD2F1 (CDF1) mice
Conditions: higher = longer survival
Outline: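 Transplantable tumor in mice; compound-treated vs vehicle-treated groups. Read-out = treated/control ratio of the measured endpoint.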

[1] = endpoint: mean survival time, dose: 100.0 mg/kg/injection, schedule: Q01DX009 (ip), vehicle: saline with Tween-80
[2] = endpoint: mean survival time, dose: 200.0 mg/kg/injection, schedule: Q01DX009 (ip), vehicle: saline with Tween-80
[3] = endpoint: mean survival time, dose: 400.0 mg/kg/injection, schedule: Q01DX009 (ip), vehicle: saline with Tween-80
[4] = endpoint: mean survival time, dose: 50.0 mg/kg/injection, schedule: Q01DX009 (ip), vehicle: saline with Tween-80
[5] = endpoint: mean survival time, dose: 100.0 mg/kg/injection, schedule: Q04DX003 (ip), vehicle: saline with Tween-80
[6] = endpoint: mean survival time, dose: 200.0 mg/kg/injection, schedule: Q04DX003 (ip), vehicle: saline with Tween-80
[7] = endpoint: mean survival time, dose: 400.0 mg/kg/injection, schedule: Q04DX003 (ip), vehicle: saline with Tween-80
[8] = endpoint: mean survival time, dose: 25.0 mg/kg/injection, schedule: Q04DX003 (ip), vehicle: saline with Tween-80
[9] = endpoint: mean survival time, dose: 50.0 mg/kg/injection, schedule: Q04DX003 (ip), vehicle: saline with Tween-80

In the case of `COCC(O)Cn1ccnc1[N+](=O)[O-]` (centres undefined), the T/C (endpoint: mean survival time, dose: 12.5 mg/kg/injection, schedule: Q01DX009 (ip), vehicle: suspension in saline) is reported as 102 % of control, the T/C (endpoint: mean survival time, dose: 12.5 mg/kg/injection, schedule: Q01DX009 (ip), vehicle: water) is reported as 100 % of control and the T/C (endpoint: mean survival time, dose: 25.0 mg/kg/injection, schedule: Q01DX009 (ip), vehicle: suspension in saline) is reported as 104 % of control. The T/C (endpoint: mean survival time, dose: 25.0 mg/kg/injection, schedule: Q01DX009 (ip), vehicle: water) was 101 % of control, the T/C (endpoint: mean survival time, dose: 50.0 mg/kg/injection, schedule: Q01DX009 (ip), vehicle: suspension in saline) was 104 % of control and the T/C (endpoint: mean survival time, dose: 50.0 mg/kg/injection, schedule: Q01DX009 (ip), vehicle: water) was 103 % of control. The T/C (endpoint: mean survival time, dose: 100.0 mg/kg/injection, schedule: Q01DX009 (ip), vehicle: suspension in saline) was 107 % of control, the T/C (endpoint: mean survival time, dose: 100.0 mg/kg/injection, schedule: Q01DX009 (ip), vehicle: water) was 97 % of control and the T/C (endpoint: mean survival time, dose: 200.0 mg/kg/injection, schedule: Q01DX009 (ip), vehicle: suspension in saline) was 104 % of control. For the same molecule, the T/C (endpoint: mean survival time, dose: 200.0 mg/kg/injection, schedule: Q01DX009 (ip), vehicle: water) was 103 % of control, the T/C (endpoint: mean survival time, dose: 400.0 mg/kg/injection, schedule: Q01DX009 (ip), vehicle: suspension in saline) was 96 % of control and the T/C (endpoint: mean survival time, dose: 400.0 mg/kg/injection, schedule: Q01DX009 (ip), vehicle: water) was 101 % of control.

In the case of `O=NN1Cc2ccccc2C1=O`, the T/C [1] is reported as 96 % of control, the T/C [2] is reported as 94 % of control and the T/C [3] is reported as 94 % of control.

For `CCC1(O)CC2CN(CCc3c([nH]c4ccccc34)C(C(=O)OC)(c3cc4c(cc3OC)N(C)C3C(O)(C(=O)NCCSSCCNC(=O)C5(O)C(O)C6(CC)C=CCN7CCC8(c9cc(C%10(C(=O)OC)CC%11CN(CCc%12c%10[nH]c%10ccccc%12%10)CC(O)(CC)C%11)c(OC)cc9N(C)C58)C76)C(O)C5(CC)C=CCN6CCC43C65)C2)C1` (centres undefined), the T/C (endpoint: median survival time, dose: 1.08 mg/kg/injection, schedule: Q01DX009 (ip), vehicle: suspension in saline) was 111 % of control.

With `NC(=O)C1(N2CCCCC2)CCN(CCCC(=O)c2ccc(F)cc2)CC1` the T/C (endpoint: mean survival time, dose: 25.0 mg/kg/injection, schedule: Q01DX009 (ip), vehicle: saline) was 101 % of control and the T/C (endpoint: mean survival time, dose: 50.0 mg/kg/injection, schedule: Q01DX009 (ip), vehicle: saline) was 101 % of control.

`Cc1cc(=O)[nH][nH]c1=O` was tested, and the T/C [1] was 104 % of control, the T/C [2] was 97 % of control and the T/C [3] was 101 % of control.

In the case of `CCSC1CCS(=O)(=O)C1` (centres undefined), the T/C [4] is reported as 93 % of control, the T/C [1] is reported as 93 % of control and the T/C [2] is reported as 97 % of control.

In the case of `CCCCCCCCOc1nccc(N)n1`, the T/C (endpoint: mean survival time, dose: 18.75 mg/kg/injection, schedule: Q01DX001 (ip), vehicle: saline with Tween-80) is reported as 105 % of control, the T/C (endpoint: mean survival time, dose: 37.5 mg/kg/injection, schedule: Q01DX001 (ip), vehicle: saline with Tween-80) is reported as 100 % of control and the T/C (endpoint: mean survival time, dose: 75.0 mg/kg/injection, schedule: Q01DX001 (ip), vehicle: saline with Tween-80) is reported as 94 % of control.

`CNC(=O)NNC(=O)c1ccccc1Cl` was tested, and the T/C [1] was 88 % of control, the T/C [2] was 108 % of control and the T/C [3] was 98 % of control.

`COc1cc(OC)c(NC(=O)C(=O)Nc2cc(Cl)c(OC)cc2OC)cc1Cl` was tested, and the T/C [4] was 88 % of control, the T/C [1] was 88 % of control and the T/C [2] was 91 % of control.

In the case of `CCN(CC)CCN1C(=O)c2cccc3cccc(c23)C1=O`, the T/C (endpoint: mean survival time, dose: 25.0 mg/kg/injection, schedule: Q04DX003 (ip), vehicle: saline) is reported as 102 % of control, the T/C (endpoint: mean survival time, dose: 50.0 mg/kg/injection, schedule: Q04DX003 (ip), vehicle: saline) is reported as 98 % of control and the T/C (endpoint: mean survival time, dose: 100.0 mg/kg/injection, schedule: Q04DX003 (ip), vehicle: saline) is reported as 102 % of control.

With `O=Cc1c2ccc(Cl)cc2nc2ccc(Cl)cc12` the T/C [5] was 101 % of control, the T/C [6] was 98 % of control and the T/C [7] was 94 % of control.

`[Cl][Mn][Cl]` was tested, and the T/C (endpoint: median survival time, dose: 8.0 mg/kg/injection, schedule: Q01DX009 (ip), vehicle: saline) was 92 % of control, the T/C (endpoint: median survival time, dose: 16.0 mg/kg/injection, schedule: Q01DX009 (ip), vehicle: saline) was 97 % of control and the T/C (endpoint: median survival time, dose: 32.0 mg/kg/injection, schedule: Q01DX009 (ip), vehicle: saline) was 103 % of control. For the same molecule, the T/C (endpoint: median survival time, dose: 64.0 mg/kg/injection, schedule: Q01DX009 (ip), vehicle: saline) was 110 % of control.

In the case of `Nc1cc(=S)c2ncn(C3OC(CO)C(O)C3O)c2[nH]1` (centres undefined), the T/C (endpoint: mean survival time, dose: 6.25 mg/kg/injection, schedule: Q01DX005 (ip), vehicle: water) is reported as 89 % of control, the T/C (endpoint: mean survival time, dose: 12.5 mg/kg/injection, schedule: Q01DX005 (ip), vehicle: water) is reported as 101 % of control and the T/C (endpoint: mean survival time, dose: 25.0 mg/kg/injection, schedule: Q01DX005 (ip), vehicle: water) is reported as 89 % of control. For the same molecule, the T/C (endpoint: mean survival time, dose: 50.0 mg/kg/injection, schedule: Q01DX005 (ip), vehicle: water) was 96 % of control, the T/C (endpoint: mean survival time, dose: 100.0 mg/kg/injection, schedule: Q01DX001 (ip), vehicle: saline with Tween-80) was 100 % of control and the T/C (endpoint: mean survival time, dose: 100.0 mg/kg/injection, schedule: Q01DX005 (ip), vehicle: water) was 93 % of control. The T/C (endpoint: mean survival time, dose: 200.0 mg/kg/injection, schedule: Q01DX001 (ip), vehicle: saline with Tween-80) was 91 % of control and the T/C (endpoint: mean survival time, dose: 400.0 mg/kg/injection, schedule: Q01DX001 (ip), vehicle: saline with Tween-80) was 100 % of control.

`CCCCOC(=O)CCCC(=O)OCCCC` was tested, and the T/C [1] was 108 % of control, the T/C [5] was 95 % of control and the T/C [2] was 104 % of control. The T/C [6] was 93 % of control, the T/C [3] was 103 % of control and the T/C [7] was 95 % of control.

`CC(C)C1(C(C)C)OCCO1` was tested, and the T/C [4] was 98 % of control, the T/C [1] was 93 % of control and the T/C [5] was 97 % of control. The T/C [2] was 95 % of control and the T/C [6] was 88 % of control.

`O=C1OC(c2ccc([N+](=O)[O-])cc2)=N/C1=C\c1ccc2c(c1)OCO2` was tested, and the T/C (endpoint: mean survival time, dose: 25.0 mg/kg/injection, schedule: Q04DX002 (ip), vehicle: saline with Tween-80) was 95 % of control, the T/C (endpoint: mean survival time, dose: 50.0 mg/kg/injection, schedule: Q04DX002 (ip), vehicle: saline with Tween-80) was 98 % of control and the T/C (endpoint: mean survival time, dose: 100.0 mg/kg/injection, schedule: Q04DX002 (ip), vehicle: saline with Tween-80) was 91 % of control.

`CCOC(=O)C(Cc1ccc(C)cc1)P(=O)(OCC)OCC` (centres undefined) was tested, and the T/C (endpoint: mean survival time, dose: 100.0 mg/kg/injection, schedule: Q01DX001 (ip), vehicle: saline) was 102 % of control, the T/C (endpoint: mean survival time, dose: 200.0 mg/kg/injection, schedule: Q01DX001 (ip), vehicle: saline) was 98 % of control and the T/C (endpoint: mean survival time, dose: 400.0 mg/kg/injection, schedule: Q01DX001 (ip), vehicle: saline) was 102 % of control.

`C1c2nnnn2Cc2nnnn21` was tested, and the T/C (endpoint: mean survival time, dose: 12.5 mg/kg/injection, schedule: Q04DX002 (ip), vehicle: saline) was 96 % of control, the T/C (endpoint: mean survival time, dose: 25.0 mg/kg/injection, schedule: Q04DX002 (ip), vehicle: saline) was 104 % of control and the T/C (endpoint: mean survival time, dose: 50.0 mg/kg/injection, schedule: Q04DX002 (ip), vehicle: saline) was 93 % of control.

`CCCCCCCCCCNC1=C(Cl)C(=O)c2ccccc2C1=O` was tested, and the T/C [8] was 98 % of control, the T/C [9] was 94 % of control and the T/C [5] was 95 % of control.

With `O=C(Nc1ccccc1)OCCCl` the T/C [5] was 100 % of control, the T/C [6] was 97 % of control and the T/C [7] was 100 % of control.

With `O=[N+]([O-])c1ccccc1CSc1ncnc2nc[nH]c12` the T/C [4] was 110 % of control, the T/C [9] was 108 % of control and the T/C [1] was 121 % of control. The T/C [5] was 110 % of control, the T/C (endpoint: mean survival time, dose: 132.0 mg/kg/injection, schedule: Q04DX003 (ip), vehicle: saline with Tween-80) was 108 % of control and the T/C [2] was 158 % of control.

With `c1ccc(OCCCNc2ccccn2)cc1` the T/C [8] was 92 % of control, the T/C [9] was 103 % of control and the T/C [5] was 92 % of control and 97 % of control.

For `CO[C@@]12[C@@H]3N[C@@H]3CN1C1=C(C(=O)C(NCCc3ccc(O)cc3)=C(C)C1=O)[C@@H]2COC(N)=O`, the T/C (endpoint: mean survival time, dose: 1.5 mg/kg/injection, schedule: Q01DX001 (ip), vehicle: water) was 102 % of control, the T/C (endpoint: mean survival time, dose: 3.0 mg/kg/injection, schedule: Q01DX001 (ip), vehicle: water) was 104 % of control and 111 % of control and the T/C (endpoint: mean survival time, dose: 6.0 mg/kg/injection, schedule: Q01DX001 (ip), vehicle: water) was 111 % of control. For the same molecule, the T/C (endpoint: mean survival time, dose: 12.0 mg/kg/injection, schedule: Q01DX001 (ip), vehicle: water) was 115 % of control and the T/C (endpoint: mean survival time, dose: 48.0 mg/kg/injection, schedule: Q01DX001 (ip), vehicle: water) was 151 % of control.

For `O=C(Nc1ccc(C(=O)O)cc1)OCc1ccccc1`, the T/C [5] was 100 % of control, the T/C [6] was 101 % of control and the T/C [7] was 91 % of control.
